In article PMC11873939, “Target Identification with Live-Cell Photoaffinity Labeling and Mechanism of Action Elucidation of ARN23765, a Highly Potent CFTR Corrector” (Journal of Medicinal Chemistry, 2025):

Tests used:
F508del-CFTR = target: T1, F508del-CFTR (Homo sapiens, UniProt P13569, DEL508-508); assay: HS-YFP functional assay in CFBE41o- cells stably overexpressing F508del-CFTR; assay type: cell-based; settings: 24 h treatment
T1 construct: expressed in transfected cells
Protocol: These analogues were tested in the functional assay on the human bronchial epithelia-derived cell line, CFBE41o-, which stably overexpresses F508del-CFTR and the halide-sensitive yellow fluorescent protein (HS-YFP).[31] […]
HS-YFP-based assay for CFTR activity
Twenty-four hours after seeding on 96-well plates, CFBE41o- cells stably over-expressing F508del-CFTR and the HS-YFP were treated with test compounds at different concentrations in the 3 nM-10 µM range.1 Cells treated with vehicle alone (DMSO) and with ARN23765, respectively, served as negative and positive controls. The following day, cells were washed with PBS containing (in mM) 137 NaCl, 2.7 KCl, 8.1 Na2HPO4, 1.5 KH2PO4, 1.0 CaCl2, and 0.5 MgCl2. Cells were then incubated for 25 min with […] of PBS plus forskolin (20 µM) and VX-770 (1 µM) to maximally stimulate F508del-CFTR. Cells were then transferred to a microplate reader (FluoStar Galaxy; BMG Labtech, Offenburg, Germany) for CFTR activity determination. The plate reader was equipped with high-quality excitation (HQ500/20X: 500 ± 10 nm) and emission (HQ535/30M: 535 ± 15 nm) filters for YFP (Chroma Technology). Each assay comprised a continuous 14 s fluorescence reading, 2 s before and 12 s after injection of […] of an iodide-containing solution (PBS with Cl- replaced by I-; final I- concentration […]). Data were normalized to the initial background-subtracted fluorescence. To determine I- influx rate, the final 11 s of the data for each well were fitted with an exponential function to extrapolate initial slope (dF/dt). Reproducibility of results was confirmed by performing three independent experiments. […]

wt-CFTR = target: T2, wt-CFTR (Homo sapiens, UniProt P13569); assay: Live-cell photoaffinity labeling, streptavidin pull-down and CFTR Western blot; assay type: binding; settings: wt-CFTR CFBE41o- cells, 25-fold excess (25 μM) competitor 30 min before probe (1 μM)
T2 construct: expressed in transfected cells
T2 sequence (P13569 whole entry): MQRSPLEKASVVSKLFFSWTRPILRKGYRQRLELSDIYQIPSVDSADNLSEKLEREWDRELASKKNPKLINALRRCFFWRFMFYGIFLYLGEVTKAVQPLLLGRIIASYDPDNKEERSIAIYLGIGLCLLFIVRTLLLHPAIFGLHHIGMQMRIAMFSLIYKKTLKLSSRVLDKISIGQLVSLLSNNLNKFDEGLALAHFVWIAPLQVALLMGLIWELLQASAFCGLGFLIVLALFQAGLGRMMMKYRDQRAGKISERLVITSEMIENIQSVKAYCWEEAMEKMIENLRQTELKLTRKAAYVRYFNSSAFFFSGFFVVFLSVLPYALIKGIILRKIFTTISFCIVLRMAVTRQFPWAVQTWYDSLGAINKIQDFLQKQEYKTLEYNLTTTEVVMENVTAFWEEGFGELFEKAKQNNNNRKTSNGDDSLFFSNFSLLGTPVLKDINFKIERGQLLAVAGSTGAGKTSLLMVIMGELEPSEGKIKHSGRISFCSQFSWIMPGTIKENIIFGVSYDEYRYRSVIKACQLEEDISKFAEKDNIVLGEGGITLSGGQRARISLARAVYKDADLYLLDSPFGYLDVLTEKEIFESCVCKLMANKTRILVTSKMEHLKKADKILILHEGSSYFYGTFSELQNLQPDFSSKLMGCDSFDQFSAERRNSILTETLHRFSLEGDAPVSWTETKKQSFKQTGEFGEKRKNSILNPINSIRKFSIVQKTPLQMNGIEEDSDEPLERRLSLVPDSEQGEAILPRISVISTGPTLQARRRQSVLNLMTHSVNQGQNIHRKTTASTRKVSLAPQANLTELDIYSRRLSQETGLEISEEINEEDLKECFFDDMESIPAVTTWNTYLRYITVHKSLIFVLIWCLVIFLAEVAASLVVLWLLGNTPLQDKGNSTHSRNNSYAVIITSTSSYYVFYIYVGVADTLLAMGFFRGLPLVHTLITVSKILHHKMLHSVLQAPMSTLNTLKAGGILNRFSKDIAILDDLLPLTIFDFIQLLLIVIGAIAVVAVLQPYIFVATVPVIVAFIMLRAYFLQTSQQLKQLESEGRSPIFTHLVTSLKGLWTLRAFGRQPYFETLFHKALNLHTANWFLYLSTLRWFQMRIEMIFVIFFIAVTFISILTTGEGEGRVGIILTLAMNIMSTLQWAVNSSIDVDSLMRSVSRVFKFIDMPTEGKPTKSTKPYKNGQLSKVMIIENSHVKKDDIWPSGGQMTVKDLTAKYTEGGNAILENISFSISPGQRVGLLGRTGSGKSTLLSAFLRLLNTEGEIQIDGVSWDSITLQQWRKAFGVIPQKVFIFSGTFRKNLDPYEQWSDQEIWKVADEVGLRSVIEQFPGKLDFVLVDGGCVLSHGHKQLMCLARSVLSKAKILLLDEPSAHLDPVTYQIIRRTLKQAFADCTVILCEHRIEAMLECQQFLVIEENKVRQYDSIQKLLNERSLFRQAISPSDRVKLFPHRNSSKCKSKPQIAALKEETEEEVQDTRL
Protocol: Wt-CFTR or F508del-CFTR CFBE41o- cells were plated at 2–2.5 × 10^6 cells/plate in 6 cm diameter dishes. The day after, sodium butyrate (5–2.5 mM) was added for 24 h; next, the medium was exchanged with fresh one supplemented with DMSO (0.25%) (276855, Sigma-Aldrich) or probe (1 μM). For competition experiments, a 25-fold excess of ARN23765 (25 μM) was added 30 min before probe’s addition. For the analysis of “corrected” F508del-CFTR, F508del-CFTR CFBE41o- cells were kept at 27 °C for 24 h before adding the probes. Probes were incubated with cells for 2 h, then the medium was removed, and plates were washed twice with phosphate buffer saline (PBS). Cells were placed on ice and irradiated for 5 min at a wavelength of 365 nm using a 100-W UV-lamp (95–0127–02 model B100-AP, Analytik Jena). Cells were harvested with trypsin (T4299, Sigma-Aldrich), washed with PBS (D8537, Sigma-Aldrich), and pellets were stored at −80 °C until used, centrifuged at 300 × g and washed twice with PBS (D8537, Sigma-Aldrich). Pellets from in-cell photoaffinity labeling with alkyne-probes (PAP_1 and PAP_2) were lysed in PBS plus protease inhibitor cocktail (78429, Thermo Scientific) by sonication. The suspension was centrifuged at 800 × g for 20 min at 4 °C to discard nuclei and cell debris. The total extracted proteins were quantified with the bicinchoninic acid (BCA) protein assay (23225, Thermo Scientific) and subjected to CuAAC before proceeding with pull-down. Pellets from in-cell photoaffinity labeling with desthio-biotinylated (DS-biot) probes (PAP_1 DS-biot, PAP_2 DS-biot, PAP_N1 DS-biot, PAP_N2 DS-biot) were lysed with a modified RIPA buffer [50 mM tris-HCl pH 8, 150 mM NaCl, 0.5% Triton-X100, 0.2% SDS, 1 mM ethylenediaminetetraacetic acid (EDTA)] supplemented with protease inhibitor cocktail and centrifuged at 10.000× g for 10 min. The protein content in the supernatant was quantified by BCA protein assay. Protein lysate (200 μg) was diluted to 800 μL and the Triton-X100 percentage was reduced to 0.2% before proceeding to pull-down.
Copper-catalyzed azide–alkyne cycloaddition (CuAAC) was performed according to a previously described protocol.[62] Briefly, to the protein preparation (250 μL at 1 mg/mL protein concentration) the following reagents were added at the indicated final concentrations: 100 μM 5/6-TAMRA-azide-desthiobiotin (CLK-1110–5, Jena Bioscience), 1.0 mM tris-(2-carbossietil)phosphine (TCEP, C4706, Sigma-Aldrich), 100 μM tris-[(1-benzyl-1H-1,2,3-triazol-4-yl)methyl]amine (TBTA, 678937, Sigma-Aldrich), 1.0 mM CuSO4.5H2O (Sigma), and 0.8% sodium dodecyl sulfate (SDS). TBTA was first dissolved in DMSO at 83.5 mM and then diluted with four volumes of tert-butanol. The reaction was mixed by vortexing and incubated for 1 h at 25 °C. After the reaction time, proteins were precipitated with 5 volumes of cold acetone overnight at −20 °C. Samples were centrifuged for 20 min at 20.000× g, and the pellets were washed with methanol, air-dried, and finally resuspended with 600 μL of 1% SDS. SDS concentration was then diluted to 0.2% with PBS before proceeding to pull-down.
High capacity streptavidin agarose (20359, Thermo Scientific) (25 μL) was added to PAP-labeled cell extracts for 1 h at room temperature under gentle rotation. The streptavidin beads were collected by centrifugation and washed four times with lysis buffer. Resin-bound proteins were eluted with 45 μL of 5 mM biotin (B4501, Sigma-Aldrich) for 30 min at room temperature and analyzed with Western blot for CFTR expression. Input samples (4 and 8 μg for wt-CFTR and F508del-CFTR CFBE41o-, respectively) were collected immediately before incubation with streptavidin resin. Input and pulled-down samples were analyzed with WB as described in the supplementary methods.

T1 sequence (P13569 with tags, fused parts or gaps DEL508-508): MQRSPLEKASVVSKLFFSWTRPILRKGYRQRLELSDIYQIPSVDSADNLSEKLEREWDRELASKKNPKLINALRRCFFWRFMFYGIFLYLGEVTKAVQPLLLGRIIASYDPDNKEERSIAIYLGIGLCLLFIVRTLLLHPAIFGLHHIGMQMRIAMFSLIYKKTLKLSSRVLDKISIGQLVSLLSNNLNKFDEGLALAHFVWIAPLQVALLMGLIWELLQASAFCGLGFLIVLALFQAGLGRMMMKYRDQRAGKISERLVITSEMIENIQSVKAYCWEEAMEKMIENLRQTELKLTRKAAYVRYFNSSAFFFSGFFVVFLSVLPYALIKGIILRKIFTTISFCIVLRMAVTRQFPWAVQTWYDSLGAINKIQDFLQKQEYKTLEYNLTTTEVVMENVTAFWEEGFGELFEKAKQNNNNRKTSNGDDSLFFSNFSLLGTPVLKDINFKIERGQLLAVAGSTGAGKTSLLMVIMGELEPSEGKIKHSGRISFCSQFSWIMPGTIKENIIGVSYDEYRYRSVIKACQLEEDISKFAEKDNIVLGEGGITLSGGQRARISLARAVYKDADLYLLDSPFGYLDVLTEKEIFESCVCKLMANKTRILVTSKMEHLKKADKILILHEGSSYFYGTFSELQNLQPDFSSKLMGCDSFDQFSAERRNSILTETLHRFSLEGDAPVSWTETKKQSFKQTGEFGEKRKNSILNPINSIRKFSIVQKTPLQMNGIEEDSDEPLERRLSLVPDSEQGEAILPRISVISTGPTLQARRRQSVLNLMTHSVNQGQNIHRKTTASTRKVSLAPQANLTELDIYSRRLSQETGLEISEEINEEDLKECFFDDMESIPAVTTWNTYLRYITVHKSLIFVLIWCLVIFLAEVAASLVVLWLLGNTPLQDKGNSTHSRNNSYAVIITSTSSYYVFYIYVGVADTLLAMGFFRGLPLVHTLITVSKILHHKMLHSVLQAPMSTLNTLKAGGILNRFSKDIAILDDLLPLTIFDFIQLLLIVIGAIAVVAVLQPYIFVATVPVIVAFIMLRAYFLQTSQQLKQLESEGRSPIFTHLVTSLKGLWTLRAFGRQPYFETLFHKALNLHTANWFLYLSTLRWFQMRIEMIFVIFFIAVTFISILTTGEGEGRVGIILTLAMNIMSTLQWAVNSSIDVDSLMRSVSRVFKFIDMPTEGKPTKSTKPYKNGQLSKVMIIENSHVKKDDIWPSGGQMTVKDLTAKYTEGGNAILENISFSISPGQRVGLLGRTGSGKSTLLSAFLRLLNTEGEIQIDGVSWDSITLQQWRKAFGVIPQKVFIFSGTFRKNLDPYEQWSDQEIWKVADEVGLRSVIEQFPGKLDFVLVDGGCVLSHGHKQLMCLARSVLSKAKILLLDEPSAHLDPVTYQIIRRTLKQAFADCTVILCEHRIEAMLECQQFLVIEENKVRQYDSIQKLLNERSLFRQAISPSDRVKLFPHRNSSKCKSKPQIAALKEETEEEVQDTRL

EC50 (F508del-CFTR; 3 nM-10 µM range): < 3 nM
HS-YFP assay in CFBE41o- cells Emax (F508del-CFTR; values normalized to DMSO-incubated cells): 2.7
SMILES: CN(C(=O)c1cccc(-n2nc(C(F)(F)F)c3c2[C@@H](Oc2ccc(C(=O)O)cc2)CCC3)c1)c1ccc2c(c1)OC(F)(F)O2 [ARN23765]
Competition: CFTR recovered in pull-down by PAP_1 DS-biot or PAP_2 DS-biot after preincubation with competitor (wt-CFTR): markedly reduced amount of the recovered protein
